One assay concerns the target IRAK4 (Homo sapiens (Human), UniProt Q9NWZ3). Briefly: IRAK4 MSD degradation in OCI-LY10. It counts as cell-based. The settings on record: MSD. Summed up: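 Remaining IRAK4 quantified by electrochemiluminescent MSD sandwich assay with two anti-IRAK4 antibodies. Compounds were dosed as 8 concentrations in 1:3 steps from a 1 to 10 μM final top on OCI-LY10 cells, incubated 4 to 24 h at 37° C. under 5% CO2. DC50 fitted with a three-parameter logistic curve.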

A further assay relates to OCI-LY10. Put plainly: CTG Cell Viability Assay - OCI-LY10. Conditions: OCI-LY10, 4 days, read-out: CTG Cell Viability Assay - OCI-LY10: Average external-IC50. It counts as cell-based, human. Summed up: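 Viability read by CellTiter-Glo luminescence after 4 days at 37° C under 5% CO2 with compound (top 10 μM final, 1:3 steps, 9 doses, DMSO 0.2%). Three-parameter logistic fit gave IC50.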

The mark [1] stands for this setting: OCI-LY10, 4 hrs, read-out: IRAK4 MSD degradation in OCI-LY10 at 4 hrs: Average external-Abs DC50.
The mark [2] stands for this setting: OCI-LY10, 24 hrs, read-out: IRAK4 MSD degradation in OCI-LY10 at 24 hrs: Average external-Abs DC50.

Where two headings read alike, the source gives them in different places. Bounds are passed on as bounds.

IRAK4, sequence (Q9NWZ3 whole entry): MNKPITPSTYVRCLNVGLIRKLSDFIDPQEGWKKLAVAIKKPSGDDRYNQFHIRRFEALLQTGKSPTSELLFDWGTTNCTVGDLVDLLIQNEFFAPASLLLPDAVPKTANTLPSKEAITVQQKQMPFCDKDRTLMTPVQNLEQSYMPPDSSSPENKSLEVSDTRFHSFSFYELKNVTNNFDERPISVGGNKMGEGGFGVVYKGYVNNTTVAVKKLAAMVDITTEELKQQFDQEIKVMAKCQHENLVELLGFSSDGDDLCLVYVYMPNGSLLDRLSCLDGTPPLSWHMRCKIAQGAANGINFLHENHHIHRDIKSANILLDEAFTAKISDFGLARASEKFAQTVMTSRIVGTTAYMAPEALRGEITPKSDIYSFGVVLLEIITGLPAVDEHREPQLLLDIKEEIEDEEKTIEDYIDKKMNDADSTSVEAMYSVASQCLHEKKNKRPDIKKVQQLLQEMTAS

Regarding `CC[C@@H]1[C@H](F)C(=O)N[C@@H]1COc1ncc(C#C[C@H]2CC[C@H](CN(C)CCCc3ccc(CNc4cccc5c4C(=O)N(C4CCC(=O)NC4=O)C5=O)cc3)CC2)c2cc(C(N)=O)c(OC)cc12` (stereo partly shown) [I-338], the 50% degradation concentration (DC50) at IRAK4 (setting [1]) fell in the range of 100 to 1000 nM. Besides, the half-maximal inhibitory concentration (IC50) in the assay with OCI-LY10 (Homo sapiens, OCI-Ly10, 96 h) was below 50 nM.
In the case of `CN(CCN1CCO[C@@H](CCNc2cccc3c2C(=O)N(C2CCC(=O)NC2=O)C3=O)C1)C[C@H]1CC[C@H](n2cc(NC(=O)c3coc(-c4ccnc(NCC5CC5)c4)n3)c(C(F)F)n2)CC1` (stereo partly shown) [I-339], the DC50 on IRAK4 (setting [1]) and on IRAK4 (setting [2]) was 10 to 100 nM each time. Besides, the IC50 with OCI-LY10 (Homo sapiens, OCI-Ly10, 96 h) was in the range of 50 to 100 nM.
In the case of `CN(CCN1CCO[C@H](CCNc2cccc3c2C(=O)N(C2CCC(=O)NC2=O)C3=O)C1)C[C@H]1CC[C@H](n2cc(NC(=O)c3cnn4ccc(N5C[C@H]6C[C@@H]5CO6)nc34)c(C(F)F)n2)CC1` (stereo partly shown) [I-340], the DC50 at IRAK4 (setting [1]) fell in the range of 100 to 1000 nM; at IRAK4 (setting [2]) it was 10 to 100 nM. Besides, in the assay with OCI-LY10 (Homo sapiens, OCI-Ly10, 96 h), the IC50 was 100 to 500 nM.
The like results for `CN(Cc1ccc(CCNc2cccc3c2C(=O)N(C2CCC(=O)NC2=O)C3=O)cc1)C[C@H]1CC[C@H](n2cc(NC(=O)c3cnn4ccc(N5C[C@H]6C[C@@H]5CO6)nc34)c(C(F)F)n2)CC1` (stereo partly drawn) [I-341, N-[3-(difluoromethyl)-1-[4-[[[4-[2-[[2-(2,6-dioxo-3-piperidyl)-1,3-dioxo-isoindolin-4-yl]amino]ethyl]phenyl]methyl-methyl-amino]methyl]cyclohexyl]pyrazol-4-yl]-5-[(1R,4R)-2-oxa-5-azabicyclo [2.2.1]heptan-5-yl] pyrazolo [1,5-a] pyrimidine-3-carboxamide] were, in that order, 100 to 1000 nM, 10 to 100 nM and above 1000 nM.
`CC[C@@H]1[C@H](F)C(=O)N[C@@H]1COc1ncc(C#C[C@H]2CC[C@H](CN3CCO[C@@H](COCCCNc4cccc5c4C(=O)N(C4CCC(=O)NC4=O)C5=O)C3)CC2)c2cc(C(N)=O)c(OC)cc12` (stereo partly shown) [I-342]: the DC50 at IRAK4 (setting [1]) lay within 100 to 1000 nM. The IC50 with OCI-LY10 (Homo sapiens, OCI-Ly10, 96 h) lay in the range of 50 to 100 nM.
For the molecule `CN(C[C@@H]1CN(CCCCc2cccc3c2C(=O)N(C2CCC(=O)NC2=O)C3=O)CCO1)C[C@H]1CC[C@H](n2cc(NC(=O)c3coc(-c4ccnc(NCC5CC5)c4)n3)c(C(F)F)n2)CC1` (stereo partly shown) [I-343], the DC50 at IRAK4 (setting [1]) lay in the range of 10 to 100 nM. For the same molecule, the IC50 in the assay with OCI-LY10 is below 50 nM.
For `O=C1CCC(N2C(=O)c3cccc(NCCCOC4CCN(C[C@H]5CC[C@H](n6cc(NC(=O)c7cnn8ccc(N9CC%10CC(C9)O%10)nc78)c(C(F)F)n6)CC5)CC4)c3C2=O)C(=O)N1` (stereo partly shown) [I-344], the 50% degradation concentration (DC50) on IRAK4 (setting [1]) lay in the range of 100 to 1000 nM. Also, in the assay on OCI-LY10 (Homo sapiens, OCI-Ly10, 96 h), the half-inhibitory concentration (IC50) was below 50 nM.
Consider `O=C1CCC(N2C(=O)c3cccc(NCCCOC4CCN(C[C@H]5CC[C@H](n6cc(NC(=O)c7cnn8ccc(N9C%10COCC9C%10)nc78)c(C(F)F)n6)CC5)CC4)c3C2=O)C(=O)N1` (stereo partly shown) [I-345], for which the half-maximal degradation concentration (DC50) on IRAK4 (setting [1]) fell in the range of 100 to 1000 nM; at IRAK4 (setting [2]) it was 10 to 100 nM. Further, the IC50 with OCI-LY10 (Homo sapiens, OCI-Ly10, 96 h) is below 50 nM.
Take `O=C1CCC(N2C(=O)c3cccc(NCCc4ccc(CCNC[C@H]5CC[C@H](n6cc(NC(=O)c7cnn8ccc(N9C[C@H]%10C[C@@H]9CO%10)nc78)c(C(F)F)n6)CC5)cc4)c3C2=O)C(=O)N1` (stereo partly drawn) [I-346, N-[3-(difluoromethyl)-1-[4-[[2-[4-[2-[[2-(2,6-dioxo-3-piperidyl)-1,3-dioxo-isoindolin-4-yl]amino]ethyl]phenyl]ethylamino]methyl]cyclohexyl]pyrazol-4-yl]-5-[(1R,4R)-2-oxa-5-azabicyclo[2.2.1]heptan-5-yl]pyrazolo[1,5-a]pyrimidine-3-carboxamide]: the DC50 on IRAK4 (setting [1]) is above 1000 nM. The IC50 in the assay on OCI-LY10 (Homo sapiens, OCI-Ly10, 96 h) is below 50 nM.
For `CN(CCCN1CCO[C@@H](CNc2cccc3c2C(=O)N(C2CCC(=O)NC2=O)C3=O)C1)C[C@H]1CC[C@H](n2cc(NC(=O)c3cnn4ccc(N5C[C@H]6C[C@@H]5CO6)nc34)c(C(F)F)n2)CC1` (stereo partly shown) [I-347], the DC50 on IRAK4 (setting [1]) is 100 to 1000 nM; at IRAK4 (setting [2]), 10 to 100 nM. The concentration for half-maximal inhibition (IC50) in the assay on OCI-LY10 (Homo sapiens, OCI-Ly10, 96 h) is below 50 nM.
Turning to `O=C1CCC(N2C(=O)c3cccc(NCCCOC4CCN(C[C@H]5CC[C@H](n6ncc(NC(=O)c7cnn8ccc(N9C[C@H]%10CC9CO%10)nc78)c6C(=O)O)CC5)CC4)c3C2=O)C(=O)N1` (stereo partly shown) [I-348], the half-maximal degradation concentration (DC50) on IRAK4 (setting [1]) and on IRAK4 (setting [2]) was above 1000 nM throughout. The IC50 in the assay with OCI-LY10 (Homo sapiens, OCI-Ly10, 96 h) is above 1000 nM.
In the case of `CN(C[C@H]1CN(CCCNc2cccc3c2C(=O)N(C2CCC(=O)NC2=O)C3=O)CCO1)C[C@H]1CC[C@H](n2cc(NC(=O)c3cnn4ccc(N5C[C@H]6C[C@@H]5CO6)nc34)c(C(F)F)n2)CC1` (stereo partly shown) [I-349], the half-maximal degradation concentration (DC50) on IRAK4 (setting [1]) was in the range of 100 to 1000 nM; on IRAK4 (setting [2]), 10 to 100 nM. Moreover, the IC50 in the assay with OCI-LY10 (Homo sapiens, OCI-Ly10, 96 h) is below 50 nM.
The like results for `CN(C[C@H]1CC[C@H](n2cc(NC(=O)c3cnn4ccc(N5CCOCC5)nc34)c(C(F)F)n2)CC1)[C@H]1CC[C@@H](Nc2cccc3c2C(=O)N(C2CCC(=O)NC2=O)C3=O)CC1` (stereo partly shown) [I-350] were, in that order, 100 to 1000 nM, 10 to 100 nM and above 1000 nM.

A word on the DC50: it is the midpoint of the concentration-degradation curve. As a reminder, the IC50 is the point on the concentration scale where inhibition reaches its midpoint.

The record behind these values is patent US11352350B2, “IRAK degraders and uses thereof” (Kymera Therapeutics, Inc., priority 2018, dated 2022).
